Marks after values point to notes of the source that are not given here.
Key:
[1] = Clinical study of desmopressin nasal spray on the occurrence of nocturnal voiding (Responder / Non-Responder); assay type: in vivo, human
Procedure: A clinical study was performed to evaluate the impact of administering desmopressin in combination with an alpha-adrenergic receptor antagonist alone or together with a 5-alpha reductase inhibitor to reduce the occurrence of nocturnal voiding by a patient. Experimental procedures and results are described below. […] Patients received as a nasal spray either (i) a 1.5 μg dosage of desmopressin or (ii) placebo. The desmopressin nasal spray (or placebo) was administered daily just prior to bedtime for a duration of twelve weeks. In addition, patients previously diagnosed as suffering from benign prostatic hyperplasia (BPH) and receiving an alpha-adrenergic receptor antagonist alone or together a 5-alpha reductase inhibitor for treatment of BPH continued to receive the alpha-adrenergic receptor antagonist alone or together the 5-alpha reductase inhibitor at the same dosage and frequency used prior to enrollment in this study. All patients in this study who received an alpha-adrenergic receptor antagonist alone or together a 5-alpha reductase inhibitor for treatment of their BPH had been receiving the alpha-adrenergic receptor antagonist alone or together the 5-alpha reductase inhibitor for at least 2 months before enrollment in this study and experienced on average at least two nocturnal voids per night before enrollment in this study. The desmopressin nasal spray was prepared by combining aliquots of an Emulsion Stock Solution and a Buffer Solution as described below. To produce an emulsion stock solution, the following ingredients in parts by weight are added to a vessel equipped with a stirring bar, and mixed for 15 minutes at 60-65° C.: (i) 180 parts sorbitan monolaurate (Span-20) aqueous solution (12 mg/mL); (ii) 30 parts Polysorbate 20 (Tween-20) aqueous solution (2 mg/mL); (iii) 400 parts cottonseed oil aqueous emulsion (26.6 mg/mL); (iv) 600 parts cyclopentadecanolide (CPE-215) aqueous emulsion (40 mg/mL); and (v) water to produce 1,500 grams total batch size. After mixing, the preparation is homogenized using a high speed mixture at 6500 RPM+ for 20-25 minutes to produce a fine emulsion. This solution is autoclaved to assure sterility. To produce a citric acid buffer stock solution, the following ingredients in parts by weight are added to a vessel equipped with a stirring bar, and mixed for 5 minutes at 60-65° C.: (i) 6200 parts water; (ii) 16 parts anhydrous citric acid aqueous solution (1.85 mg/mL); (iii) 76 parts sodium citrate, dihydrate aqueous solution (8.9 mg/mL); (iv) 104 parts Polysorbate 20 (Tween-20) aqueous solution (12 mg/mL); and (v) water to produce 8,500 grams total batch size. To produce a desmopressin stock solution, 0.111 part desmopressin acetate trihydrate is added to sufficient buffer stock solution to produce 100.0 mL of solution, and stirred until all the desmopressin is dissolved to produce a stock solution having a concentration of 100 μg desmopressin/mL. From this stock solution a 30 μg/mL solution was prepared by dilution. To produce the desmopressin nasal spray, aliquots of the 30 μg/mL solution were filtered to eliminate any bacterial contamination and diluted with an equal volume of emulsion stock solution to produce aseptic, preservative free dose forms comprising 15 μg/mL desmopressin, pH 5.5, containing 2% cyclopentadecanolide. These were bottled in sterile pump spray bottles fitted with a Pfeiffer APF pump sprayers that deliver 100 μL per metered spray (i.e., 1.5 μg desmopressin (i.e., 1500 ng desmopressin) per spray). The liquid contains no detectable microorganisms. Patients recorded the occurrence of nocturnal voids during the study period. Patients were designated to be a “Responder” if after receiving treatment there was a reduction in the average number of nocturnal voids during the treatment period.

[2] = human, in vivo; cited from earlier work
[3] = BPH patients also receiving alpha-adrenergic receptor antagonist and 5-alpha reductase inhibitor, 1.5 μg nasal spray, 12 weeks, n = 21
[4] = BPH patients on alpha-adrenergic receptor antagonist alone or together with 5-alpha reductase inhibitor, n = 21
[5] = BPH patients, no alpha-adrenergic receptor antagonist or 5-alpha reductase inhibitor, n = 42
[6] = male patients without BPH, desmopressin only, n = 34

With `NC(=O)CC[C@@H]1NC(=O)[C@H](Cc2ccccc2)NC(=O)[C@H](Cc2ccc(O)cc2)NC(=O)CCSSC[C@@H](C(=O)N2CCC[C@H]2C(=O)N[C@H](CCCN=C(N)N)C(=O)NCC(N)=O)NC(=O)[C@H](CC(N)=O)NC1=O` [Desmopressin, 1-desamino-8-D-arginine vasopressin] the “Non-Responder Patients: Number of Patients that Received Desmopressin” value (“Non-Responder Patients: Number” for short) ([1]; BPH patients also receiving alpha-adrenergic receptor antagonist (one patient also on an anticholinergic agent), 1.5 μg nasal spray, 12 weeks, n = 21) was 7**, the “Non-Responder Patients: Number” value [1, 3] was 2 and the “Responder Patients: Number of Patients that Received Desmopressin” value [1, 3] was 5. The “Responder Patients: Number of Patients that Received Desmopressin” value ([1]; BPH patients also receiving alpha-adrenergic receptor antagonist, 1.5 μg nasal spray daily before bedtime, 12 weeks, n = 21 desmopressin group) was 7, the “Difference in Responder Response Rate Between Desmopressin-treated Patients & Those Receiving Placebo” value (“Difference” for short) ([1]; BPH patients on alpha-adrenergic receptor antagonist alone or together with 5-alpha reductase inhibitor) was 31% and the “Difference” value ([1]; BPH patients on alpha-adrenergic receptor antagonist alone or together with 5-alpha reductase inhibitor, listed as desmopressin) was 31%. For the same compound, the “Non-Responder Patients: Total Number of Patients that Received Desmopressin” value [1, 4] was 9, the “Percent Total Non-Responder Patients receiving desmopressin” value [1, 4] was 43% and the “Percent Total Responder Patients (absolute response rate) receiving desmopressin” value (“Percent Total Responder Patients” for short) [1, 4] was 57%. For the same compound, the “Responder Patients: Total Number of Patients that Received Desmopressin” value [1, 4] was 12, the “Percent Total Responder Patients” value ([1]; BPH patients on alpha-adrenergic receptor antagonist alone or together with 5-alpha reductase inhibitor, n = 21, listed as desmopressin) was 57% and the “Difference” value ([1]; BPH patients, no alpha-adrenergic receptor antagonist or 5-alpha reductase inhibitor) was 14%. For the same compound, the “Difference” value ([1]; BPH patients, no alpha-adrenergic receptor antagonist or 5-alpha reductase inhibitor, listed as desmopressin) was 14%, the “Non-Responder Patients: Number” value [1, 5] was 24 and the “Percent Total Non-Responder Patients receiving desmopressin” value [1, 5] was 57%. For the same compound, the “Percent Total Responder Patients” value [1, 5] was 43%, the “Responder Patients: Number of Patients that Received Desmopressin” value [1, 5] was 18 and the “Percent Total Responder Patients” value ([1]; BPH patients, no alpha-adrenergic receptor antagonist or 5-alpha reductase inhibitor, n = 42, listed as desmopressin) was 43%. For the same compound, the “Reduction in occurrence of nocturnal voiding, combination compared with single treatments (in words)” value ([1]; desmopressin with alpha-adrenergic receptor antagonist alone or together with 5-alpha reductase inhibitor, versus desmopressin alone or the antagonist(s) without desmopressin) was “greater percentage of patients experiencing a reduction in the occurrence of nocturnal voiding”, the “Difference” value ([1]; male patients without BPH, desmopressin only) was 18% and the “Difference” value ([1]; male patients without BPH, desmopressin only, listed as desmopressin) was 18%. The “Non-Responder Patients: Number” value [1, 6] was 16, the “Percent Total Non-Responder Patients receiving desmopressin” value [1, 6] was 47% and the “Percent Total Responder Patients” value [1, 6] was 53%. For the same compound, the “Responder Patients: Number of Patients that Received Desmopressin” value [1, 6] was 18, the “Percent Total Responder Patients” value ([1]; male patients without BPH, desmopressin only, n = 34, listed as desmopressin) was 53% and the “half-life (known clearance rate)” value [2] was 1.5 to 2.0 h.

— patent publication US10286033B2, “Methods and compositions comprising desmopressin in combination with an alpha-adrenergic receptor antagonist” (Serenity Pharmaceuticals, LLC, priority 2014, dated 2019)
